Data as given in patent US5434138A, “Gonadoliberin antagonists” (Hoechst Aktiengesellschaft, priority 1990, dated 1995).

Assays:
histamine secretion = conditions: A. Phillips et al., Life Sci. 41 (1987); cited from earlier work
serum testosterone = assay: Testosterone-lowering effect on infusion by minipumps; format: in vivo, rat; conditions: male rats, subcutaneous infusion by minipumps for 7 days
Experimental: (§1) The peptides according to the invention have been tested for an atrophic effect on androgen-dependent organs and for an LH- and testosterone-lowering effect in serum and blood of male rats by continuous infusion (MINIPUMPS). The ovulation-inhibiting effect has been tested on female rats. The histamine release was checked using rat peritoneal mast cells.
The testosterone-lowering effect was tested on male rats during subcutaneous infusion for 7 days. The biological effect on androgen-dependent organs and serum testosterone was recorded. The test compounds were administered by subcutaneous infusion using minipumps at a rate of […] for 7 days. The test compounds were dissolved in sterile 5 % strength mannitol solution. The minipumps were implanted subcutaneously in the region of the back under anesthesia and aseptic conditions.
Serum testosterone was extracted with diethyl ether and determined by a specific RIA.
Testosterone-lowering effect on infusion by minipumps

[1] = system: immature female rats (LHRH-induced ovulation); assay: Rat antiovulation assay; format: in vivo; conditions: PMSG-pretreated immature female rats, phenobarbital; 800 ng LHRH s.c. 2 hours after antagonist
Experimental: as §1
The ovulation-inhibiting effect was tested in immature female rats which had been pretreated with PMSG (pregnant mare serum gonadotropin) in order to induce follicle maturation, Spontaneous ovulation was prevented by barbiturate (phenobarbital). A test dose of 800 ng of LHRH was injected subcutaneously 2 hours after the antagonists. The test substances were injected subcutaneously dissolved in 5% strength mannitol solution. The next day the Fallopian tubes were dissected out and stained with Patent Blue, and the tubular oocytes were counted under a microscope. The dose for an ovulation-inhibiting effect (ED 100) was determined for all the antagonists.

[2] = system: rat peritoneal mast cells; assay: Histamine release from peritoneal mast cells; format: cell-based, Wistar rats; conditions: 37° C., 30 minutes
Experimental: as §1
Wistar rats were sacrificed by decapitation. 50 ml of a 0.9% strength NaCl solution were injected into the abdominal cavity and, after gentle massage, the abdominal wall was opened. The fluid, which contains the peritoneal cells, was aspirated using a Pasteur pipette and then centrifuged. The pelleted cells were resuspended and, after testing viability, diluted to 10^6 mast cells/ml.
150 μl of the dissolved gonadoliberin antagonist were added to a suspension of 10^5 mast cells in 150 μl of 0.9 % strength NaCl solution. After incubation at 37° C. for 30 minutes, the test tubes were centrifuged and the supernatant was removed. The LHRH antagonist Ac-D-Nal-D-p-Cl-D-Phe-D-Trp-Ser-Tyr-D-Ser(Rha)-Leu-Arg-Pro-Azagly-NH2, known to be a compound which induces histamine release by mast cells, was used as comparison substance. To determine the total histamine release (100%), the mast cell suspensions were rapidly boiled over a Bunsen burner.
A modified form of the methods described by Skofitsch et al. (J. Chromatography, 226, 53-59, 1981) and Siraganian and Hook (in Manual of Clinical Laboratory Immunology; eds: Rose et al. American Society of Microbiology, Washington D.C., pages 675, 1986) was used. Briefly summarized, 100 μl of a 1N NaOH and 100 μl of phthalaldehyde were added to 250 μl of supernatant and shaken vigorously. After a reaction time of 2 minutes, the fluorophore was converted into a more strongly fluorescent and stable product by acidification with 50 μl of 3N HCl. 10 μl of the supernatant were injected into the Chromspher C8 column (Chrompak FRW) of the HPLC system. This system comprises an SP 8100 chromatograph (Spectra Physics) and an SP 4270 integrator (Spectra Physics) and an LS-1 fluorescence detector (Perkin Elmer). The fluorescence was recorded at the wavelengths of 360 nm excitation and 450 nm emission.
Histamine release from peritoneal mast cells (μl/ml)

| Substance | histamine secretion (histamine secretion) | Testosterone-lowering effect on infusion by minipumps: Dose per day (serum testosterone) | Ovulation-inhibiting dose (ED 100) [1] | Histamine release, percentage relative to total histamine release on boiling ([2]; 0.01 (μl/ml) antagonist) | Histamine release, percentage relative to total histamine release on boiling ([2]; 0.1 (μl/ml) antagonist) | Histamine release, percentage relative to total histamine release on boiling ([2]; 1 (μl/ml) antagonist) | Histamine release, percentage relative to total histamine release on boiling ([2]; 10 (μl/ml) antagonist) | Histamine release, percentage relative to total histamine release on boiling ([2]; 100 (μl/ml) antagonist) |
| --- | --- | --- | --- | --- | --- | --- | --- | --- |
| Nal-Glu | greatly reduced |  |  |  |  |  |  |  |
| Ac-D-Nal-D-p-Cl-Phe-D-Trp-Ser-Tyr-D-Ser(Rha)-Leu-Ser(Xyl)-Pro-Azagly-NH2 [Example 3] |  | 120 μg/24 h/rat | 512 ng per rat s.c. |  |  |  |  |  |
| Ac-D-NaI-D-p-Cl-Phe-D-Trp-Ser-Tyr-D-Ser(Rha)-Leu-Ser(Rha)-pro-Azagly-NH2 [Example 1] |  | 120 μg/24 h/rat | 120 ng per rat s.c. | 0.33% | 2.82% | -2.16% | -5.37% | -8.61% |
| Ac-D-Nal-D-p-Cl-Phe-D-Pal-Ser-Tyr-D-Ser(Rha)-Leu-Ser(Fuc)-Pro-Azagly-NH2 [Example 4] |  | 60 μg/24 h/rat | 64 ng per rat s.c. |  |  |  |  |  |
| Ac-D-Nal-D-p-Cl-Phe-D-Pal-Ser-Tyr-D-Ser(Rha)-Leu-Ser(Rha)-Pro-D-Ala-NH2 [Example 5] |  | 60 μg/24 h/rat | 64 ng per rat s.c. | 1.9% | 2.4% | 0.9% | 0.3% | 3.8% |
| Ac-D-Nal-D-p-Cl-D-Phe-D-Trp-Ser-Tyr-D-Ser(Rha)-Leu-Arg-Pro-Azagly-NH2 [Comparison substance, reference compound] |  |  |  | 2.6% | 2.1% | 15.3% | 92.4% | 107.6% |
| Ac-D-Nal-D-p-Cl-Phe-D-Pal-Ser-Tyr-D-Ser(Rha)-Leu-Ser (Rha)-Pro-Azagly-NH2 [Example 2] |  | 120 μg/24 h/rat | 256 ng per rat s.c. | 2.5% | 4.6% | 3.7% | 0.9% | 0.0% |
